The values below come from US12570667B2, “Compounds with antibacterial and anti viral activities” (priority 2020, dated 2026).

Converted amounts (≈) assume the structure as drawn. Like-named read-outs stand apart in the source and are kept apart here.

For series [1], the system named is S. aureus. Briefly: Minimum inhibitory concentration by micro-dilution method. The class given is cell-based. The conditions noted are these: Staphylococcus aureus; Gram-positive bacteria S. aureus. How it is done: (§1) MIC determination: Minimum inhibitory concentration was determined using micro-dilution method in the 96 well plates. 20 μl from 1 mg/ml stock was mixed with culture to get 66 μg/ml concentration and serially diluted in further well to get a concentration of 33 μg/ml, 16.5 μg/ml and so on, refer FIG. 1.
On the technique in general: In broth dilution the organism is exposed to a series of concentrations in liquid medium.

The test system of series [2] is E. coli. Described as above. The class given is cell-based. Particulars: Gram-negative organism E. coli; for MIC: Escherichia coli. How it is done: as §1
The test system of series [3] is S. aureus. Nature of the series: Antibacterial activity by spread plate-disc diffusion method. Format: cell-based. The conditions noted are these: 20 μl from 1 mg/ml stock per disc, 37° C., 24 h, "0" indicates no antibacterial activity. As to the method: (§2) In an embodiment, the antibacterial activity of nigericin and compounds of formula I are determined by the Disc diffusion method. […] The compounds of formula I are found to be inhibiting both gram-positive and gram-negative bacteria.
(§3) Nigericin along with compounds of formula I were tested against Gram-positive (S. aureus) and Gram-negative (E. coli) test organisms by spread plate-disc diffusion method. 20 μl from 1 mg/ml concentration stock was used per disc for each test compound and plated were incubated at 37° C. for 24 h. After the incubation period zone of inhibition was measured.
On the technique in general: A growth-free zone around the sample is the usual read-out of agar diffusion tests.

For series [4], the system named is E. coli. Described as above. The class given is cell-based. Particulars: 20 μl from 1 mg/ml stock per disc, 37° C., 24 h, "0" indicates no antibacterial activity. As to the method: as §2, §3
Series [5] can be described thus: In-vitro toxicity, MTT assay. The class given is cell-based, mouse. Particulars: mouse, wild-type mouse embryonic fibroblast cells (WTMEFs), read-out: Cytotoxicity IC50; for IC50 at 2 h: 2 h treatment; for IC50 at 24 h: 24 h treatment. How it is done:
(§4) In a preferred embodiment, nigericin and compounds of formula I are tested for toxicity on Wild type mouse fibroblast cell lines using 3-(4,5-dimethylthiazol-2-yl)-2,5-diphenyltetrazolium bromide assay (MTT assay).
(§5) Wild-type mouse fibroblast cell line (WTMEFs) was used to assess the toxicity associated with nigericin and its fluorinated analogues for the viability using 3-(4,5-dimethylthiazol-2-yl)-2,5-diphenyltetrazolium bromide assay (MTT assay). WTMEFs cell line was seeded in 96-well plates at a density of 5000 cells per well in […] DMEM media containing 10% FBS. The cell lines were incubated for 24 h in a CO2 incubator at 37° C. After 24 h, the drug was added at a concentration of […] and incubated for 2 h and 24 h. MTT assay was carried out to verify the cell viability after 2 h and 24 h of drug treatment in respective plates. All drug concentration was used in triplicate (n=3).

For a further series, the system named is Polio Virus. The conditions noted are these: read-out: effective concentration (EC50), inhibition of viral RNA synthesis; cited from earlier work.
The subject of series [6] is Wild-type mouse fibroblast cell line (WTMEFs). Nature of the series: In-vitro toxicity, MTT assay. The class given is cell-based. Particulars: 24 h treatment, read-out: Cytotoxicity IC50. As to the method: as §4, §5
For orientation: Tetrazolium dyes change colour on reduction, which living cells bring about.

`COC1C[C@@H](C[C@H]2CC[C@H](C)C([C@@H](C)C(=O)Nc3ccc(F)cc3)O2)O[C@]2(O[C@](C)(C3CC[C@@](C)(C4OC(C5O[C@@](O)(CO)[C@H](C)C[C@@H]5C)C[C@@H]4C)O3)C[C@H]2C)C1C` (stereo partly drawn) [Analog N-5]: the MIC with S. aureus [1] came to 5 µM (≈ 4.09 µg/mL); in the series with E. coli [2], 0.3 µM (≈ 0.245 µg/mL). For the same molecule, the “Antibacterial activity by disc diffusion method (Zone measured in mm)” value (shortened to “Antibacterial activity”) is recorded as 23 mm in the series with S. aureus [3] and 30 mm in the series on E. coli [4]. For the same molecule, the IC50 at 2 h in series [5] and in series [5] (unit mM) was more than 0.1 mM each time. In addition, the 50% inhibitory concentration (IC50) at 24 h in series [5] and in series [5] (unit mM) was 0.0598 mM each time.

For `COC1C[C@@H](C[C@H]2CC[C@H](C)C([C@@H](C)C(=O)Nc3ccccc3F)O2)O[C@]2(O[C@](C)(C3CC[C@@](C)(C4OC(C5O[C@@](O)(CO)[C@H](C)C[C@@H]5C)C[C@@H]4C)O3)C[C@H]2C)C1C` (stereo partly drawn) [Analog N-3, (2R)—N-(2-fluorophenyl)-2-((3S,6R)-6-(((2S,4R,5R,7R)-2-((2S,3′S)-5′-((3S,5R,6R)-6-hydroxy-6-(hydroxymethyl)-3,5-dimethyltetrahydro-2H-pyran-2-yl)-2,3′-dimethyloctahydro-[2,2′-bifuran]-5-yl)-9-methoxy-2,4,10-trimethyl-1,6-dioxaspiro[4.5]decan-7-yl)methyl)-3-methyltetrahydro-2H-pyran-2-yl)propanamide], the minimum inhibitory concentration (MIC) in the series with S. aureus [1] turned out to be 2.5 µM (≈ 2.05 µg/mL); against E. coli [2], 0.3 µM (≈ 0.245 µg/mL). Moreover, the results for the “Antibacterial activity” value in the series on S. aureus [3] and with E. coli [4] were 31 mm and 33 mm, respectively. The IC50 at 2 h in series [5] and in series [5] (unit mM) was more than 0.1 mM throughout. For the same molecule, the 50% inhibitory concentration (IC50) at 24 h in series [5] and in series [5] (unit mM) was 0.0669 mM in each case.

For the molecule `COC1C[C@@H](C[C@H]2CC[C@H](C)C([C@@H](C)C(=O)Oc3ccccc3)O2)O[C@]2(O[C@](C)(C3CC[C@@](C)(C4OC(C5O[C@@](O)(CO)[C@H](C)C[C@@H]5C)C[C@@H]4C)O3)C[C@H]2C)C1C` (stereo partly drawn) [Analog N-1, phenyl (2R)-2-((3S,6R)-6-(((2S,4R,5R,7R)-2-((2S,3′S)-5′-((3S,5R,6R)-6-hydroxy-6-(hydroxymethyl)-3,5-dimethyltetrahydro-2H-pyran-2-yl)-2,3′-dimethyloctahydro-[2,2′-bifuran]-5-yl)-9-methoxy-2,4,10-trimethyl-1,6-dioxaspiro[4.5]decan-7-yl)methyl)-3-methyltetrahydro-2H-pyran-2-yl)propanoate], the “Antibacterial activity” value in the series with S. aureus [3] and in the series on E. coli [4] was 0 mm in each case.

Regarding `COc1ccc(OC(=O)[C@H](C)C2O[C@@H](C[C@@H]3CC(OC)C(C)[C@]4(O3)O[C@](C)(C3CC[C@@](C)(C5OC(C6O[C@@](O)(CO)[C@H](C)C[C@@H]6C)C[C@@H]5C)O3)C[C@H]4C)CC[C@@H]2C)cc1` (stereo partly drawn) [Analog N-2], the “Antibacterial activity” value in the series on S. aureus [3] and in the series on E. coli [4] was 0 mm each time.

In turn, `CO[C@@H]1C[C@@H](C[C@H]2CC[C@H](C)[C@H]([C@@H](C)C(=O)O)O2)O[C@]2(O[C@](C)([C@H]3CC[C@@](C)([C@@H]4O[C@@H]([C@H]5O[C@@](O)(CO)[C@H](C)C[C@@H]5C)C[C@@H]4C)O3)C[C@H]2C)[C@@H]1C` [Nigericin, reference compound] yielded an MIC against S. aureus [1] of 0.3 µM (≈ 0.217 µg/mL). The “Minimum inhibitory concentration (MIC)” value in the series on E. coli [2] was “did not show any inhibition”. Moreover, the “Antibacterial activity” value in the series on S. aureus [3] amounted to 22 mm; in the series on E. coli [4] it was 0 mm. Further, in the series with Polio Virus, the EC50 was approximately 1 µM. Moreover, in series [6], the IC50 was found to be 9.22 µM. In addition, the concentration for half-maximal inhibition (IC50) at 2 h in series [5] and in series [5] (unit mM) was approximately 0.01 mM in each case. For the same molecule, the IC50 at 24 h in series [5] and in series [5] (unit mM) was approximately 0.01 mM throughout.

What is called MIC is the least concentration at which growth counts as inhibited. A low value points to greater potency. One may read the IC50 as the concentration that gives 50% inhibition.
